The target of one data set is T1, rat sEH (Rattus norvegicus, UniProt P80299).
T1 sequence (P80299 1-554): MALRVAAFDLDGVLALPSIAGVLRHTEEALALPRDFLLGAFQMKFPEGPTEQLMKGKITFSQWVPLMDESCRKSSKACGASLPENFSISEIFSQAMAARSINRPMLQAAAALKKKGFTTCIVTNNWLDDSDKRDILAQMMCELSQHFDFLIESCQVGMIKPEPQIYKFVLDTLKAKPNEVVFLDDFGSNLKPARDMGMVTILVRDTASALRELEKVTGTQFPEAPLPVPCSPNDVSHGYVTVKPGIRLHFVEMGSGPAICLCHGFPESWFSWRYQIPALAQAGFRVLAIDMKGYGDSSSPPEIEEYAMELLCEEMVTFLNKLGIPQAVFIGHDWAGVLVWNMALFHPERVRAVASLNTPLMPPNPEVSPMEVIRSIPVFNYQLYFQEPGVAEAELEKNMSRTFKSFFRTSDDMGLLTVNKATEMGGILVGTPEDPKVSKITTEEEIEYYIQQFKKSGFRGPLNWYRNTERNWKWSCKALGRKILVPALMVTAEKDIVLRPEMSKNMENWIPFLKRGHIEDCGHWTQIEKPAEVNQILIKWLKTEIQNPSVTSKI
The data set can be described thus: sEH inhibition assay. The format is biochemical.

A further data set concerns the target T2, mouse sEH (Mus musculus, UniProt P34914).
T2 sequence (P34914 1-554): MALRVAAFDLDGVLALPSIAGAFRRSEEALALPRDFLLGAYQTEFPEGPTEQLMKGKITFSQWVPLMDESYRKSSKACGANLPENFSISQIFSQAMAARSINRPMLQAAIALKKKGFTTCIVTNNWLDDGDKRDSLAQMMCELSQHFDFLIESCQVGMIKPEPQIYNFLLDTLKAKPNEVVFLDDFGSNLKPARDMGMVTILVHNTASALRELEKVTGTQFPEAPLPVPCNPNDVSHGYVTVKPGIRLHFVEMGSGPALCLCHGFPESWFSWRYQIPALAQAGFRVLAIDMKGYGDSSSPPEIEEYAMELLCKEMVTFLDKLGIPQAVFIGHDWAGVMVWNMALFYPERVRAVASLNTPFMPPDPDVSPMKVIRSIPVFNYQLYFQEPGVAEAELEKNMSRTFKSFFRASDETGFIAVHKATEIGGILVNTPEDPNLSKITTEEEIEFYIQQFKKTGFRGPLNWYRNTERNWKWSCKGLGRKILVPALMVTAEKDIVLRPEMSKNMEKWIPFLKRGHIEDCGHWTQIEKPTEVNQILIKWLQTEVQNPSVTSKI
Nature of the data set: sEH inhibition assay. The format is biochemical.

Another data set is described as follows: Solubility assay. The format is physicochemical. To be noted: sodium phosphate buffer, pH 7.4, aqueous buffer, kinetic from dmso stock.
In a further data set the target is T3, human FAAH (Homo sapiens, UniProt O00519).
T3 sequence (O00519 1-579): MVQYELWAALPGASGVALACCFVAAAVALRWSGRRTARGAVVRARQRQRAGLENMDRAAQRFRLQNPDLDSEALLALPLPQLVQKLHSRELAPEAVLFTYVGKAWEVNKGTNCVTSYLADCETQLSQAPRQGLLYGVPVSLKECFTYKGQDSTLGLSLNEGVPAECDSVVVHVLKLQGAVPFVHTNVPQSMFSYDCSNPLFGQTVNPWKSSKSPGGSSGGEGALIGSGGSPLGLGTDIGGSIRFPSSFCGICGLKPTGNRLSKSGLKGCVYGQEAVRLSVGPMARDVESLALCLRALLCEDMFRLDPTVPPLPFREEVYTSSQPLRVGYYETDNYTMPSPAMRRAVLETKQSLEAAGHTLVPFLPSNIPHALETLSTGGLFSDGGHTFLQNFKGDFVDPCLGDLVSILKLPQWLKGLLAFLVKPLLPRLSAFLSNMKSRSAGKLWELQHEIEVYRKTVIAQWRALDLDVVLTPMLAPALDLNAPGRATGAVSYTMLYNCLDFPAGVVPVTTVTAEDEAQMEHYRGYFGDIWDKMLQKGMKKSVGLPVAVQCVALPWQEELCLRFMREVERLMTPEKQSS
Nature of the data set: FAAH inhibition assay. It is filed as biochemical.

Another data set has as its target T4, human sEH (Homo sapiens, UniProt P34913).
T4 sequence (P34913 1-555): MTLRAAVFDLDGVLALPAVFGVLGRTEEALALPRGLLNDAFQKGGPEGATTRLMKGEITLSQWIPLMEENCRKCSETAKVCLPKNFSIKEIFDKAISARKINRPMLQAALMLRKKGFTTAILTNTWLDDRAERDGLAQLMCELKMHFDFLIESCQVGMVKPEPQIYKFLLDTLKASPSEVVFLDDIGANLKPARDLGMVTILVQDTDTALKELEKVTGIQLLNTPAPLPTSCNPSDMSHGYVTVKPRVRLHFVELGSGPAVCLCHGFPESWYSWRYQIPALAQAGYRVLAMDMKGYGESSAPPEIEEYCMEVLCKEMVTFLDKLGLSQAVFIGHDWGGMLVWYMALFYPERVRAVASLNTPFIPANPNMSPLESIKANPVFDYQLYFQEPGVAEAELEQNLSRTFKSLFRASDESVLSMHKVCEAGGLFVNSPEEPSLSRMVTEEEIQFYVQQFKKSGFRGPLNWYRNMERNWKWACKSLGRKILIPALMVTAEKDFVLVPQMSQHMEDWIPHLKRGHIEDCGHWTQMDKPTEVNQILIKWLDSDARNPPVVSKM
Nature of the data set: sEH inhibition assay. It is filed as biochemical.

A further data set concerns the target T5, microsomal EH (Homo sapiens, UniProt P07099).
T5 sequence (P07099 1-455): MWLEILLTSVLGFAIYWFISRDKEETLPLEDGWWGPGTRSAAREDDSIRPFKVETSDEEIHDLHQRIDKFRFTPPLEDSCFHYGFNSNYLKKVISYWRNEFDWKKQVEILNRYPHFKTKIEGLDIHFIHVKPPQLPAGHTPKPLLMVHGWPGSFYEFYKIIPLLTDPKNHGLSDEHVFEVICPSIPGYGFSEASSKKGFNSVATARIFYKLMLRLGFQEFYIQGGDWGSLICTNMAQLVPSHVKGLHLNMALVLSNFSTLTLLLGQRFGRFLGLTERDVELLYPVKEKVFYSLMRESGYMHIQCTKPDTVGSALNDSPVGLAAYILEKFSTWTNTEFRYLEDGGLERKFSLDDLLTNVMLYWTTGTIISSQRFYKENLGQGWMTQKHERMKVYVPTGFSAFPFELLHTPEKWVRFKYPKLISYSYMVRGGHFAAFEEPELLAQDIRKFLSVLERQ
Nature of the data set: Microsomal EH inhibition. It is filed as biochemical. To be noted: see Supplemental Data.

Another data set has as its target T6, EH3 (Homo sapiens, UniProt Q9H6B9).
T6 sequence (Q9H6B9 1-360): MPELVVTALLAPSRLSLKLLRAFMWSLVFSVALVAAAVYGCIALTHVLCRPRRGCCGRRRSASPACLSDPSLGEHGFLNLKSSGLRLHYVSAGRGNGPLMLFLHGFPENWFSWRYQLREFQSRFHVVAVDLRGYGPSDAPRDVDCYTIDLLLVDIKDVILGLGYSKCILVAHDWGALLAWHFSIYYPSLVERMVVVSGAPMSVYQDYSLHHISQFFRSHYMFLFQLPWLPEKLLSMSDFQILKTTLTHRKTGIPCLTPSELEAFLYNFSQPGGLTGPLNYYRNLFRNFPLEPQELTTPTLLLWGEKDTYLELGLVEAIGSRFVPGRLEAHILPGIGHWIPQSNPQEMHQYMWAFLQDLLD
The data set can be described thus: EH3 inhibition. The format is biochemical. To be noted: see Supplemental Data.

The next data set deals with male Sprague-Dawley rats. The data set can be described thus: Home cage wheel running. The format is in vivo, rat. To be noted: 3 mg/kg intraperitoneal, vs vehicle, n = 8/group.

The structures appear in SMILES notation. Converted amounts (≈) assume the structure as drawn. A value given as a limit tells only on which side of the number the result lay.

Usually IC50 stands for the concentration that gives 50% inhibition. Usually solubility stands for how much of the substance goes into solution per volume. Higher therefore signals much dissolved substance.

For the molecule `O=C(Nc1ccc(-c2nnnn2Cc2ccccc2)cc1)C1CCN(S(=O)(=O)c2ccccc2Cl)CC1` [Compound 4p, N-(4-(1-benzyl-1H-tetrazol-5-yl)phenyl)-1-((2-chlorophenyl)sulfonyl)piperidine-4-carboxamide], the IC50 on rat sEH was 25.5 nM; at mouse sEH, 106 nM; against human FAAH, above 10000 nM; against human sEH, 9.8 nM. Moreover, the solubility in “Solubility assay” fell in the range of 31 to 63 µM (≈ 16.6 to 33.8 µg/mL).
`COc1cnc(-n2nnnc2-c2ccc(NC(=O)C3CCN(S(=O)(=O)c4ccccc4Cl)CC3)cc2)c(OC)n1` [Compound 4q, 1-((2-chlorophenyl)sulfonyl)-N-(4-(1-(3,5-dimethoxypyrazin-2-yl)-1H-tetrazol-5-yl)phenyl)piperidine-4-carboxamide]: the half-maximal inhibitory concentration (IC50) against rat sEH is 305 nM; on mouse sEH, 264 nM; against human FAAH, above 10000 nM; at human sEH, 213 nM. In the data set “Solubility assay”, this molecule displayed a solubility of 31 to 63 µM (≈ 18.1 to 36.9 µg/mL).
On to `COc1cn2c(-c3ccc(NC(=O)C4CCN(S(=O)(=O)c5ccccc5Cl)CC4)cc3)nnc2c(OC)n1` [Compound 4r, 1-((2-chlorophenyl)sulfonyl)-N-(4-(6,8-dimethoxy-[1,2,4]triazolo[4,3-a]pyrazin-3-yl)phenyl)piperidine-4-carboxamide], for which the “inhibition of microsomal EH” value on microsomal EH was “does not inhibit”. Besides, the IC50 at rat sEH is 21.8 nM; against mouse sEH, 9 nM; against human FAAH it was above 10000 nM; at human sEH it was 19.4 nM. The molecule also displayed a solubility in the data set “Solubility assay” of 31 to 63 µM (≈ 17.3 to 35.1 µg/mL). Also, the “inhibition of EH3” value against EH3 is given as “does not inhibit”.
As to `CN1CC[C@]23c4c5ccc(O)c4O[C@H]2[C@@H](O)C=C[C@H]3[C@H]1C5` [morphine, reference compound], the “wheel revolutions in the 15 min after drug injection” value in the data set on male Sprague-Dawley rats is given as “significantly lower”.

Values taken from article PMC12814486 (Bioorganic & medicinal chemistry, 2025).
